Reference: publication PMC5513037, “Examining the influence of specificity ligands and ATP-competitive ligands on the overall effectiveness of bivalent kinase inhibitors” (Proteome Science, 2017)

What was measured:
Assay in all cases: KAM-matrix competition in K562 lysate;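 as to 0.001 uM KAM: median log10 fold change of treatment over DMSO control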;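 as to 0.01 uM KAM: median log10 fold change of treatment over DMSO control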;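 as to 0.1 uM KAM: median log10 fold change of treatment over DMSO control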;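 as to 1 uM KAM: median log10 fold change of treatment over DMSO control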;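 as to 10 uM KAM: median log10 fold change of treatment over DMSO control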
Format in all cases: binding
PKN1 = molecular target: T1, PKN1 (Homo sapiens, UniProt Q16512);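 as to 0.001 uM KAM: median log10 fold change of treatment over DMSO control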;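 as to 0.01 uM KAM: median log10 fold change of treatment over DMSO control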;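 as to 0.1 uM KAM: median log10 fold change of treatment over DMSO control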;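 as to 1 uM KAM: median log10 fold change of treatment over DMSO control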;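 as to 10 uM KAM: median log10 fold change of treatment over DMSO control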
T1 construct: endogenous in cells; host or cells: K562
T1 sequence (Q16512 whole entry): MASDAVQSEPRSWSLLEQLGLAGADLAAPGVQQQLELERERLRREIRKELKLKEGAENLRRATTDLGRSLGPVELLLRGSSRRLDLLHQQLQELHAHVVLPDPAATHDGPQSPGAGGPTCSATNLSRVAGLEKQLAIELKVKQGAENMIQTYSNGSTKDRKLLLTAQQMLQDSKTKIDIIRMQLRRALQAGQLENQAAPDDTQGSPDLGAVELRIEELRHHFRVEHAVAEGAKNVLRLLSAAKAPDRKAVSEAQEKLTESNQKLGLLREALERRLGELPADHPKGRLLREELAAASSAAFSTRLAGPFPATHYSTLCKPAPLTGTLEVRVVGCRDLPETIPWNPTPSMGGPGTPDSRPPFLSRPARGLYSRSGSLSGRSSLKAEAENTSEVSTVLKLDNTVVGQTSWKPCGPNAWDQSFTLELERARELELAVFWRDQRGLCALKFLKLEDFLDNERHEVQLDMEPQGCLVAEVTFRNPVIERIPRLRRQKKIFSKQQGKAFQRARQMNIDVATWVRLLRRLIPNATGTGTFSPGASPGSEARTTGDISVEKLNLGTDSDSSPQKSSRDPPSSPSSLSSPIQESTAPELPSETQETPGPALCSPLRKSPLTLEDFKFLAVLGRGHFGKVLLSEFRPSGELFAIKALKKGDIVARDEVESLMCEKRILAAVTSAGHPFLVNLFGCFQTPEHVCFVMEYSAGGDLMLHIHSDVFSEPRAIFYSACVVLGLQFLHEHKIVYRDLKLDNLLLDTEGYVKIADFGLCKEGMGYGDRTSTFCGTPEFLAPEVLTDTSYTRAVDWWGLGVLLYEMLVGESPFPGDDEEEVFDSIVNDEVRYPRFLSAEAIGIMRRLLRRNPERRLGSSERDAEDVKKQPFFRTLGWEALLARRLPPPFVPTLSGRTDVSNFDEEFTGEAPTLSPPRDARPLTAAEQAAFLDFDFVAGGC
Method: (§1) Supplement 12953_2017_125_MOESM1_ESM.zip/MS_Supp Info.xlsx, sheet "KAM" | column: 10 uM KAM; 1 uM KAM; 0.1 uM KAM; 0.01 uM KAM; 0.001 uM KAM; RB50

KIT = molecular target: T2, KIT (Homo sapiens, UniProt P10721);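 as to 0.001 uM KAM: median log10 fold change of treatment over DMSO control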;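 as to 0.01 uM KAM: median log10 fold change of treatment over DMSO control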;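 as to 0.1 uM KAM: median log10 fold change of treatment over DMSO control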;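 as to 1 uM KAM: median log10 fold change of treatment over DMSO control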;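 as to 10 uM KAM: median log10 fold change of treatment over DMSO control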
T2 construct: endogenous in cells; host or cells: K562 cells (combined S0.8 and P0.8 lysate)
T2 sequence (P10721 26-976): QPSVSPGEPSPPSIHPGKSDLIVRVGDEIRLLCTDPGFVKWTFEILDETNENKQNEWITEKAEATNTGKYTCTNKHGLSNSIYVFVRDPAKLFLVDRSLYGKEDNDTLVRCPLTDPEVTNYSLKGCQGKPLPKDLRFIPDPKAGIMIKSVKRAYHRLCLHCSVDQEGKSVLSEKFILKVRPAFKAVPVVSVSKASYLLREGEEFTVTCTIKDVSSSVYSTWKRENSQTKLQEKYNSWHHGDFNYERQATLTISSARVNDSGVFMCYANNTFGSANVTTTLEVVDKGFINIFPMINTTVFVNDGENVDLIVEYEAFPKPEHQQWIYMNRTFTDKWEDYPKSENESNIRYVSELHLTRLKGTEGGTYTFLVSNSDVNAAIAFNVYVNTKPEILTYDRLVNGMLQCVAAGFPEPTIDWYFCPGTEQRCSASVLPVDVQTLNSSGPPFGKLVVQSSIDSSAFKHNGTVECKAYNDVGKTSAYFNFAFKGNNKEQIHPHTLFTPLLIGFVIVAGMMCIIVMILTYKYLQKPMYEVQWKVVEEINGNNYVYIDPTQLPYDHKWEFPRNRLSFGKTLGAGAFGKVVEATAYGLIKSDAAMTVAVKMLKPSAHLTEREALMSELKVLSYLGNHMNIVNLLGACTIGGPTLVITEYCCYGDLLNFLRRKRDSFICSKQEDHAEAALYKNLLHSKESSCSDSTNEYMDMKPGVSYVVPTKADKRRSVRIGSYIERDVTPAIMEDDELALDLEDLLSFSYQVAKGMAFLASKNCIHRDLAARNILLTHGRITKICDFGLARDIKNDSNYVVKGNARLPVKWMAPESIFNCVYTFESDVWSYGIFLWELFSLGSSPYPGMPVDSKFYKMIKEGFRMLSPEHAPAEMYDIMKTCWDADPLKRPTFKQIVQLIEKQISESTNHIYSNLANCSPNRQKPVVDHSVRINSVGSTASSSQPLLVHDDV
Method: as §1

TTN = molecular target: T3, TTN (Homo sapiens, UniProt Q8WZ42);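 as to 0.001 uM KAM: median log10 fold change of treatment over DMSO control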;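 as to 0.01 uM KAM: median log10 fold change of treatment over DMSO control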;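 as to 0.1 uM KAM: median log10 fold change of treatment over DMSO control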;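 as to 1 uM KAM: median log10 fold change of treatment over DMSO control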;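 as to 10 uM KAM: median log10 fold change of treatment over DMSO control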
T3 construct: endogenous in cells; host or cells: K562
Method: as §1

STK4 = molecular target: T4, STK4 (Homo sapiens, UniProt Q13043)
T4 construct: endogenous in cells; host or cells: K562
T4 sequence (Q13043 1-487): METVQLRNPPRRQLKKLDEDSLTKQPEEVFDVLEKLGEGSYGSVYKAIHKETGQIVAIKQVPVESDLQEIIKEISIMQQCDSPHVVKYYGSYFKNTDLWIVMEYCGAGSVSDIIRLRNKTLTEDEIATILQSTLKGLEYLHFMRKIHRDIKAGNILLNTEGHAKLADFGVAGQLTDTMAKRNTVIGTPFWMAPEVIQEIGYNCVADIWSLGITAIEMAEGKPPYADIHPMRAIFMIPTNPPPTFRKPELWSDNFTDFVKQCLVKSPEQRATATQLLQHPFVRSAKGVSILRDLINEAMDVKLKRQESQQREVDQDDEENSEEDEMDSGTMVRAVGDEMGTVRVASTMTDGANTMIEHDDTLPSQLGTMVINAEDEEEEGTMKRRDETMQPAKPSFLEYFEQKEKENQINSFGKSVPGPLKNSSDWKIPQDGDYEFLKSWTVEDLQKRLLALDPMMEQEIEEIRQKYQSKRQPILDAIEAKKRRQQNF
Method: as §1

LATS2 = molecular target: T5, LATS2 (Homo sapiens, UniProt Q9NRM7)
T5 construct: endogenous in cells; host or cells: K562
T5 sequence (Q9NRM7 1-1088): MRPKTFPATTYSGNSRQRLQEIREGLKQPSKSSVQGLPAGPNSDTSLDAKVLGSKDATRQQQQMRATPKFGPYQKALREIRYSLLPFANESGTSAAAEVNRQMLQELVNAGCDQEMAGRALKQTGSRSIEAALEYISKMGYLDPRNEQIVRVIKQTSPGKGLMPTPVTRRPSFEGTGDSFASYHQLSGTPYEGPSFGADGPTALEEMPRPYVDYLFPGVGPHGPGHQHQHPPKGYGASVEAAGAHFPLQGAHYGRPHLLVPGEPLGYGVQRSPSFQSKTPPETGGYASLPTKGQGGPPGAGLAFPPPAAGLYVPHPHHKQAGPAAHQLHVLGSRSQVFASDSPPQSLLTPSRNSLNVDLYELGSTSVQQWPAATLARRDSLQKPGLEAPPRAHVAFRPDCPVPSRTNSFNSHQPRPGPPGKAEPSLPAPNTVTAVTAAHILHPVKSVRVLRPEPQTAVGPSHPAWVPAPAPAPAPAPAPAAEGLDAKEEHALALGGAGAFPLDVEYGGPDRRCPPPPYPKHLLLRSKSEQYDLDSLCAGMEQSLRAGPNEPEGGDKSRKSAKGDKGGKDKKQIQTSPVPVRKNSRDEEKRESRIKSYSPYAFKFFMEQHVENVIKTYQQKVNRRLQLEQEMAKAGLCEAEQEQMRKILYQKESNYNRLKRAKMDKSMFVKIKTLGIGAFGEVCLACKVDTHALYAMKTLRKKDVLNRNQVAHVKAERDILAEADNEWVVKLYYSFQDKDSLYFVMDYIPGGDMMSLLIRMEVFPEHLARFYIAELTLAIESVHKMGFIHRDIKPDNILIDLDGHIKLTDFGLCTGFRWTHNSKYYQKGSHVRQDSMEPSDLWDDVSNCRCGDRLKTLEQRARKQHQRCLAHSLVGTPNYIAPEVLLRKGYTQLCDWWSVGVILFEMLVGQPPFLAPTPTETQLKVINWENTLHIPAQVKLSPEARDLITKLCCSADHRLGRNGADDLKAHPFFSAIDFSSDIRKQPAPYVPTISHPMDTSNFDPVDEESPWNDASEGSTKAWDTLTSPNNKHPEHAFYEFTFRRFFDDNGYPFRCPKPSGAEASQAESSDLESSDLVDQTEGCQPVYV
Method: as §1

[1] = KAM 0.001-10 uM, read-out: RB50 (the source's name)
[2] = read-out: RB50 (the source's name)

N#CCc1ccc(Nc2nc(NCCCN)cc(Nc3cc(C4CC4)[nH]n3)n2)cc1 [KAM]
IC50 (PKN1; [1]): > 10000 nM | 0.001 uM KAM (PKN1; relative to 0 uM KAM = 0): -0.02702 | 0.01 uM KAM (PKN1; relative to 0 uM KAM = 0): -0.01686 | 0.1 uM KAM (PKN1; relative to 0 uM KAM = 0): -0.08252 | 1 uM KAM (PKN1; relative to 0 uM KAM = 0): -0.1762 | 10 uM KAM (PKN1; relative to 0 uM KAM = 0): -0.2257 | IC50 (KIT; [1]): > 10000 nM | 0.001 uM KAM (KIT; relative to 0 uM KAM = 0): -0.03484 | 0.01 uM KAM (KIT; relative to 0 uM KAM = 0): -0.02696 | 0.1 uM KAM (KIT; relative to 0 uM KAM = 0): -0.08182 | 1 uM KAM (KIT; relative to 0 uM KAM = 0): -0.1617 | 10 uM KAM (KIT; relative to 0 uM KAM = 0): -0.1565 | IC50 (TTN; [1]): > 10000 nM | 0.001 uM KAM (TTN; relative to 0 uM KAM = 0): -0.03178 | 0.01 uM KAM (TTN; relative to 0 uM KAM = 0): 0.01596 | 0.1 uM KAM (TTN; relative to 0 uM KAM = 0): -0.008464 | 1 uM KAM (TTN; relative to 0 uM KAM = 0): 0.03427 | 10 uM KAM (TTN; relative to 0 uM KAM = 0): 0.01084 | median Log10 fold change (STK4; 0.001 uM KAM): -0.002208 | median Log10 fold change (STK4; 0.01 uM KAM): -0.01313 | median Log10 fold change (STK4; 0.1 uM KAM): -0.2747 | median Log10 fold change (STK4; 1 uM KAM): -0.6557 | median Log10 fold change (STK4; 10 uM KAM): -0.6912 | IC50 (STK4; [2]): 146 nM | median Log10 fold change (LATS2; 0.001 uM KAM): 0.01099 | median Log10 fold change (LATS2; 0.01 uM KAM): -0.05599 | median Log10 fold change (LATS2; 0.1 uM KAM): -0.2153 | median Log10 fold change (LATS2; 1 uM KAM): -0.4993 | median Log10 fold change (LATS2; 10 uM KAM): -0.5621 | IC50 (LATS2; [2]): 251 nM
